In patent US12187723B2 (BRISTOL-MYERS SQUIBB COMPANY, priority 2019, dated 2025):

Each compound was assayed against T1, human TLR7 (Homo sapiens, UniProt Q9NYK1) (assay: TLR7 inhibition reporter assay (HEK-Blue SEAP)). Settings: HEK-Blue cells overexpressing human TLR7, gardiquimod 7.5 μM, 22 hour incubation.
T1 construct: host or cells: HEK-Blue cells
T1 sequence (Q9NYK1 27-1049): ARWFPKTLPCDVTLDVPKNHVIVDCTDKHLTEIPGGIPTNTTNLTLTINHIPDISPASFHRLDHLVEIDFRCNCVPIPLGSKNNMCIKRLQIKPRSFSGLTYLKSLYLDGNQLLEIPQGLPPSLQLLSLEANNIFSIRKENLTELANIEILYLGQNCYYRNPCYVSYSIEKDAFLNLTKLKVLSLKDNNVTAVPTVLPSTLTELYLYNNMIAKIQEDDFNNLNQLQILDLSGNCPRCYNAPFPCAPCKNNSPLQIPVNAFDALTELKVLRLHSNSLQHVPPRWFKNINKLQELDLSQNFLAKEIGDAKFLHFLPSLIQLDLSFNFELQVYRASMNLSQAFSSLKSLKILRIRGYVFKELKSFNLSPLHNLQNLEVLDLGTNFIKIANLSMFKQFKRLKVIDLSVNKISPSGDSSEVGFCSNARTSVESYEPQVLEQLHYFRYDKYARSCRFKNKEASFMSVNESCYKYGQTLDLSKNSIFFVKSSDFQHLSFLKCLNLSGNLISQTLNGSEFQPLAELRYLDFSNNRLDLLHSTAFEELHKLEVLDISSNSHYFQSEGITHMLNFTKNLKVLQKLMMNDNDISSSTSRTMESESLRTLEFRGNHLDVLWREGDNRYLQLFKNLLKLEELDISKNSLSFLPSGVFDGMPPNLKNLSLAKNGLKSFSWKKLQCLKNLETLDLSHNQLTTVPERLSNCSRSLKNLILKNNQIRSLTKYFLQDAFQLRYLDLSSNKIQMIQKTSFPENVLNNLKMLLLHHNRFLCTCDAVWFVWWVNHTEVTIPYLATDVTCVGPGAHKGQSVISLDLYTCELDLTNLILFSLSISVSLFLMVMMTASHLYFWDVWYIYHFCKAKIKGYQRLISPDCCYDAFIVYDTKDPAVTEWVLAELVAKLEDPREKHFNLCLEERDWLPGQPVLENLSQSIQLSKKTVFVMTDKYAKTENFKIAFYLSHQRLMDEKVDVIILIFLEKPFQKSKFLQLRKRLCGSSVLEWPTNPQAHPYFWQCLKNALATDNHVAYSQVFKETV
Format: cell-based
Procedure, shortened: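 22 h, 37° C, 5% CO2 incubation; compounds 0.05 nM-50 μM final; TLR7 cells 15000/well, TLR8 20,000/well. Readout: SEAP via HEK-Blue Detection medium. % inhibition = signal reduction versus agonist + DMSO wells, referenced to known inhibitor.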

SMILES	IC50
Cc1cc2c(cc1-c1cc(C)c3ncnn3c1)[nH]c(=O)n2[C@@H]1CCCN(C2COC2)C1 [Example 18, (R)-6-methyl-5-(8-methyl-[1,2,4]triazolo[1,5-a]pyridin-6-yl)-1-(1-(oxetan-3-yl)piperidin-3-yl)-1,3-dihydro-2H-benzo[d]imidazol-2-one]	409 nM
Cc1cc2c(cc1-c1cc(C)c3ncnn3c1)[nH]c(=O)n2[C@H]1CC[C@@H](N(C)C)CC1 [Example 19, 1-((1s,4s)-4-(dimethylamino)cyclohexyl)-6-methyl-5-(8-methyl-[1,2,4]triazolo[1,5-a]pyridin-6-yl)-1,3-dihydro-2H-benzo[d]imidazol-2-one]	21.3 nM
CCN(CC)[C@H]1CC[C@@H](n2c(=O)[nH]c3cc(-c4cc(C)c5ncnn5c4)c(C)cc32)CC1 [Example 20, 1-((1s,4s)-4-(diethylamino)cyclohexyl)-6-methyl-5-(8-methyl-[1,2,4]triazolo[1,5-a]pyridin-6-yl)-1,3-dihydro-2H-benzo[d]imidazol-2-one]	8.86 nM
CCN[C@H]1CC[C@@H](n2c(=O)[nH]c3cc(-c4cc(C)c5ncnn5c4)c(C)cc32)CC1 [Example 21, 1-((1s,4s)-4-(ethylamino)cyclohexyl)-6-methyl-5-(8-methyl-[1,2,4]triazolo[1,5-a]pyridin-6-yl)-1,3-dihydro-2H-benzo[d]imidazol-2-one]	13.3 nM
Cc1cc2c(cc1-c1cc(C)c3ncnn3c1)[nH]c(=O)n2[C@H]1CC[C@@H](NC(C)C)CC1 [Example 22, 1-((1s,4s)-4-(isopropylamino)cyclohexyl)-6-methyl-5-(8-methyl-[1,2,4]triazolo[1,5-a]pyridin-6-yl)-1,3-dihydro-2H-benzo[d]imidazol-2-one]	4.77 nM
Cc1cc2c(cc1-c1cc(C)c3ncnn3c1)[nH]c(=O)n2[C@H]1CC[C@H](N(C)C)CC1 [Example 23, 1-((1r,4r)-4-(dimethylamino)cyclohexyl)-6-methyl-5-(8-methyl-[1,2,4]triazolo[1,5-a]pyridin-6-yl)-1,3-dihydro-2H-benzo[d]imidazol-2-one]	37.7 nM
CCN[C@H]1CC[C@H](n2c(=O)[nH]c3cc(-c4cc(C)c5ncnn5c4)c(C)cc32)CC1 [Example 24, 1-((1r,4s)-4-(ethylamino)cyclohexyl)-6-methyl-5-(8-methyl-[1,2,4]triazolo[1,5-a]pyridin-6-yl)-1,3-dihydro-2H-benzo[d]imidazol-2-one]	12.4 nM
Cc1cc2c(cc1-c1cc(C)c3ncnn3c1)[nH]c(=O)n2[C@H]1CC[C@H](NC(C)C)CC1 [Example 25, 1-((1r,4s)-4-(isopropylamino)cyclohexyl)-6-methyl-5-(8-methyl-[1,2,4]triazolo[1,5-a]pyridin-6-yl)-1,3-dihydro-2H-benzo[d]imidazol-2-one]	20.2 nM
Cc1cc2c(cc1-c1cc(C)c3ncnn3c1)[nH]c(=O)n2[C@@H]1CCCN(CC(C)(C)C)C1 [Example 26, (R)-6-methyl-5-(8-methyl-[1,2,4]triazolo[1,5-a]pyridin-6-yl)-1-(1-neopentylpiperidin-3-yl)-1,3-dihydro-2H-benzo[d]imidazol-2-one]	235 nM
Cc1cc2c(cc1-c1cc(C)c3ncnn3c1)[nH]c(=O)n2[C@@H]1CCCN(C2CCOCC2)C1 [Example 27, (R)-6-methyl-5-(8-methyl-[1,2,4]triazolo[1,5-a]pyridin-6-yl)-1-(1-(tetrahydro-2H-pyran-4-yl)piperidin-3-yl)-1,3-dihydro-2H-benzo[d]imidazol-2-one]	79.5 nM
CCC(C)N1CCC[C@@H](n2c(=O)[nH]c3cc(-c4cc(C)c5ncnn5c4)c(C)cc32)C1 (stereo partly drawn) [Example 28, 1-((3R)-1-(sec-butyl)piperidin-3-yl)-6-methyl-5-(8-methyl-[1,2,4]triazolo[1,5-a]pyridin-6-yl)-1,3-dihydro-2H-benzo[d]imidazol-2-one]	27.3 nM
